Experimental data taken from patent US20180354909A1, “SUBSTITUTED BENZIMIDAZOLIUM, PYRIDO-IMIDAZOLIUM, OR PYRAZINO-IMIDAZOLIUM COMPOUNDS AS CHEMOTHERAPEUTICS” (The Board of Regents of the University of Texas System, priority 2015, published 2018).

How the values were obtained:
[1] = tested on: mitochondrial membrane potential; test: TMRE mitochondrial membrane potential staining in Mut6 cells; type: cell-based, mouse; conditions: within 30 min
Method: TMRE mitochondrial membrane potential assay kit was purchased from Abcam (113852) and the assay was performed according to the manufacturer's protocol. Briefly, cells were pre-incubated with 1 μM 12M11 (10 min or 18 hrs) or 100 nM FCCP (10 min) and incubated for additional 20 min with 200 nM TMRE before pictures were taken.

MEF = test: Change in ATP levels in MEF cells; type: cell-based, mouse; conditions: 2-6 hr
Method: (§1) Mut6 tumor cells or MEFs were plated into 96-well plates. One day later, Oligomyin (2 μM), Rotenone (200 nM), or 12M11 (1 μM) were added into each well and then ATP levels were measured by Cell-Titer Glo (Promega) after 2 hr, 4 hr, or 6 hr incubation. Each data is mean of six replicates with ± standard deviation.

Mut6 [2] = test: Change in ATP levels in Mut6 cells; type: cell-based, mouse; conditions: Mut6, 2-6 hr
Method: as §1

Mut6 [3] = test: Cytotox testing (CellTiter-Glo ATP assay) in Mut6 cells; type: cell-based, mouse; conditions: CellTiter-Glo
Method: (§2) Mut6 tumor cells were cultured in DMEM/F12 media supplemented by EGF (10 ng/mL), basic FGF (10 ng/mL), heparin (4 ug/mL), glucose (total 21 mM), NaHCO3 (113 μg/mL), Hepes (119 μg/mL), glutamine (2 mM), sodium pyruvate (1 mM), N2 supplement (ThermoFisher Gibco 17502-048, 100×, at 100-fold dilution), B27 supplement (ThermoFisher Gibco 12587-010, 50×, at 100-fold dilution), and penicillin/streptomycin (ThermoFisher, final 1%). Cells were maintained in Ultra-low attachment plate (Corning) as sphere-forming cells. For ATP assays and protein/RNA isolation, cells were plated into 96-well plates or 6-well plated that were coated with poly-lysine (Sigma P6407, 10 μg/mL in PBS, 4 hr at 37° C.) and laminin (ThermoFisher 23017015, ˜5 mg/L in PBS, overnight at 37° C.). MEFs and Astrocytes were cultured in DMEM supplemented with 10% FBS and 1% Penicillin/Streptomycin.
2,000 cells were plated into each well of 96-well plates. About 3 hours later, cells were treated by 12M11, at 800-fold dilution (4 mM stock was diluted into 5 μM final concentration). […] CellTiter-Glo assay (Promega) was performed according to manufacturer's instructions, by adding 20 μL of reagent into each well. Luminescence signal was detected by the PolarStar plate reader (BMG Labtech). Experiments were performed in quadruplicate, and results are presented with mean average −/+ standard deviation. EC505 were calculated by GraphPad Prism6 software.
The compounds described herein were tested using a cell-based cytotoxicity assay against neuronal stem cells in Mut6, which is a mouse glioblastoma model cell line.

Phospho-S6 = test: p-S6 western blot in Mut6 cells; type: cell-based, mouse
Method: (§3) Mut6 tumor cells and MEFs were treated by DMSO or 1 μM 12M11 for the indicated times. Cell lysate was prepared by RIPA buffer with phosphatase inhibitor (Thermo) and protease inhibitor (Roche). Antibodies are purchased from Santa Cruz (ATF4), Cell Signaling (pS6, S6, AMPK, and pAMPK), and Millipore (Gapdh).

astrocytes = test: Cytotox testing (CellTiter-Glo) in astrocytes; type: cell-based
Method: as §2
2,000 cells were plated into each well of 96-well plates. About 3 hours later, cells were treated by 12M11, at 800-fold dilution (4 mM stock was diluted into 5 μM final concentration). Cells were further incubated for 4 days. CellTiter-Glo assay (Promega) was performed according to manufacturer's instructions, by adding 20 μL of reagent into each well. Luminescence signal was detected by the PolarStar plate reader (BMG Labtech). Experiments were performed in quadruplicate, and results are presented with mean average −/+ standard deviation. EC505 were calculated by GraphPad Prism6 software.

ATF4 = ATF4 western blot in Mut6 cells; type: cell-based, mouse
Method: as §3

SMILES	oxidative phosphorylation / mitochondrial membrane potential by TMRE staining [1]	ATP levels (% change from basal) (MEF)	ATP levels (% change from basal) (Mut6 [2])	activity against Mut6 cells (Mut6 [3])	Phospho-S6 protein level (Phospho-S6)	activity against astrocytes (astrocytes)	ATF4 protein level (ATF4)
N#CC(C#N)=NNc1ccc(OC(F)(F)F)cc1 [FCCP, reference compound]	impairs oxidative phosphorylation						
CC[C@H]1/C=C/C=C/C[C@@H](C)[C@H](O)[C@@](C)(O)C(=O)[C@@H](C)[C@H](O)[C@@H](C)C(=O)[C@@H](C)[C@H](O)[C@@H](C)/C=C/C(=O)O[C@@H]2[C@H](C)[C@H](CC1)O[C@]1(CC[C@H](C)[C@H](C[C@@H](C)O)O1)[C@H]2C [oligomycin]		increase	decrease significantly	sensitive	suppression	sensitive	induction
C=C(C)[C@H]1Cc2c(ccc3c2O[C@@H]2COc4cc(OC)c(OC)cc4[C@@H]2C3=O)O1 [rotenone]		increase	decrease significantly	sensitive	suppression	sensitive	induction
